Reference: US12617779B2, “Self degradation-type CDK9 inhibitor prodrug and liposome encapsulating same” (Sumitomo Pharma Co., Ltd., priority 2021, dated 2026)

Assay: Liposome encapsulation test, remote loading method (Experimental Example 4);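 as to Encapsulation efficiency: encapsulated compound as percent of compound amount introduced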
Format: physicochemical
Conditions: Compound concentration when encapsulated 10 mg/mL
Protocol: For Example 1, Example 2, Example 3, Example 4, Example 5, Example 6, Example 7, Example 8, Example 9, Example 10, Example 11, Example 12, Example 13, Example 14, Example 15, Example 16, Example 17 and Alvocidib, an encapsulation test in liposomes was performed using a remote loading method.
<Liposome Encapsulation Test of Example 1, Example 2, Example 5, Example 6, Example 9, Example 10, Example 11, Example 12, Example 13, Example 14, Example 15, and Example 16>
Hydrogenated soybean phosphatidylcholine (COATSOME NC-21E, manufactured by NOF CORPORATION, 7.77 g), cholesterol (manufactured by Sigma, 2.78 g) and distearoylphosphatidylethanolamine-methoxypolyethylene glycol 2000 (SUNBRIGHT DSPE-020CN, manufactured by NOF CORPORATION, 2.47 g) were dissolved in tert-butyl alcohol (720 mL) warmed to 65° C. The solution was placed in an eggplant flask and frozen in a dry ice-acetone bath, and then the tert-butyl alcohol was removed by evaporation under reduced pressure to give a lipid mixture.
To the above lipid mixture was added a 250 mM ammonium sulfate solution (240 mL), and the mixture was warmed to 65° C., and dispersed by a homogenizer (ULTRA-TURRAX, manufactured by IKA) to give a crude liposome dispersion. Then, the crude liposome dispersion was dispersed by a high pressure homogenizer (Nano-Mizer NM2, manufactured by YOSHIDA KIKAI CO., LTD.) at a pressure of 100 MPa to give liposomes with an average particle size (Z-average) of about 80 nm. The liposome outer solution was replaced with 10 mM L-histidine/10% sucrose solution (pH 6.5) using a dialysis cassette (Slide-A-Lyzer G2 Dialysis Cassettes 20K MWCO, manufactured by Thermo Scientific) to give an empty liposome solution. The solution was filtered through a 0.22 μm membrane filter, and a 10 mM L-histidine/10% sucrose solution (pH 6.5) was added thereto to adjust the total lipid concentration to 50 mM (50 μmol/mL). The lipid concentration was determined by quantitatively analyzing cholesterol using HPLC and calculating the total lipid concentration from the lipid mixing ratio. The amount for the above adjustment was increased or decreased as appropriate.
The compound (10 mg) was weighed, and the empty liposome solution (1 mL) with a total lipid concentration of 50 mM was added thereto. The solution was adjusted to pH 5 to 6 with 1 mol/L hydrochloric acid or 1 mol/L aqueous sodium hydroxide solution as necessary, warmed in a 65° C. water bath for 2 to 3 minutes, and ice-cooled. The mixture was centrifuged at 15,000×g for 5 minutes to precipitate and remove insoluble substances.
The liposome solution (100 μL) after removing insoluble substances was taken on an ultrafiltration filter (Amicon Ultra, 100K, 0.5 mL, manufactured by Merck) and centrifuged at 4° C., 15,000×g for 10 minutes. The compound concentrations in the liposome solution after removing insoluble substances and in the filtrate after ultrafiltration were determined by HPLC, and the encapsulation rate, encapsulation efficiency, and encapsulated compound content per 50 μmol of lipid were calculated by the following formula.
The measurement conditions for HPLC are as follows.
An empty liposome solution with a total lipid concentration of 75 mM was prepared by the same procedure as for the above example compound group. Each compound was weighed, and the empty liposome solution with a total lipid concentration of 75 mM was added thereto such that the compound concentration became 15 mg/mL. The solution was adjusted to pH 5 to 6 with 1 mol/L hydrochloric acid or 1 mol/L aqueous sodium hydroxide solution, warmed in a 65° C. water bath for 3 minutes, and ice-cooled. Hereafter, the encapsulation rate and encapsulation efficiency were calculated by the same procedure as for the above example compound group. The encapsulated compound content per 50 μmol of lipid was calculated by the following formula.
[formula] <Liposome Encapsulation Test of Example 7, Example 8 and Example 17> […]

CN1CC[C@H](c2c(OC(=O)N(Cc3ccccc3)CC3CCCCN3)cc(O)c3c(=O)cc(-c4ccccc4Cl)oc23)[C@H](O)C1 (stereo partly drawn) [Example 15, 2-(2-chlorophenyl)-5-hydroxy-8-[(3S,4R)-3-hydroxy-1-methylpiperidin-4-yl]-4-oxo-4H-1-benzopyran-7-yl benzyl [(piperidin-2-yl)methyl]carbamate]
Encapsulated compound content per 50 μmol of lipid: 2.2 mg
Encapsulation efficiency: 22.2%
Encapsulation rate: 23.6%

CCN(CCC1CCCCN1)C(=O)Oc1cc(O)c2c(=O)cc(-c3ccccc3Cl)oc2c1[C@H]1CCN(C)C[C@H]1O (stereo partly drawn) [Example 16, 2-(2-chlorophenyl)-5-hydroxy-8-[(3S,4R)-3-hydroxy-1-methylpiperidin-4-yl]-4-oxo-4H-1-benzopyran-7-yl ethyl[2-(piperidin-2-yl)ethyl]carbamate]
Encapsulated compound content per 50 μmol of lipid: 2.2 mg
Encapsulation efficiency: 21.7%
Encapsulation rate: 20.7%
